Laboratory results as given in ChEMBL document CHEMBL1155959, “Inhibitory effects of polymethoxy flavones isolated from Citrus reticulate on degranulation in rat basophilic leukemia RBL-2H3: enhanced inhibition by their combination” (Bioorg Med Chem, 2008).
The source made the active and inactive calls. The calls are words filed in the database; no cut-off is given here.

What was measured:
[1] = biological target: Tyrosine-protein kinase SYK (Rattus norvegicus) (UniProt Q64725); test: Inhibition of Syk phosphorylation in antigen-stimulated rat RBL-2H3 cells at 50 uM by Western blot analysis in presence of dinitrophenylated bovine serum albumin; type: cell-based
[2] = biological target: Mitogen-activated protein kinase 1 and 3 (ERK2 and ERK1) (Rattus norvegicus) (UniProt P63086+P21708); test: Inhibition of ERK1/2 phosphorylation in antigen-stimulated rat RBL-2H3 cells at 50 uM by Western blot analysis in presence of dinitrophenylated bovine serum albumin; type: cell-based
RBL-2H3 [3] = test: Effect on antigen-stimulated intracellular ROS production in IgE-sensitized CM-H2DCF-DA-treated rat RBL-2H3 cells assessed as increase in 2',7'-dichlorofluorescein oxidation at 50 uM after 30 mins in presence of dinitrophenylated bovine serum albumin; type: functional, cell-based
[4] = biological target: Tyrosine-protein kinase Lyn (Rattus norvegicus) (UniProt Q07014); test: Inhibition of Lyn phosphorylation in antigen-stimulated rat RBL-2H3 cells at 50 uM by Western blot analysis in presence of dinitrophenylated bovine serum albumin; type: cell-based
RBL-2H3 [5] = test: Inhibition of p38 MAPK phosphorylation in antigen-stimulated rat RBL-2H3 cells at 50 uM by Western blot analysis in presence of dinitrophenylated bovine serum albumin; type: cell-based
[6] = test system: Radical scavenging activity; test: Antioxidant activity assessed as DPPH radical scavenging activity; type: functional
[7] = biological target: T1, 1-phosphatidylinositol 4,5-bisphosphate phosphodiesterase gamma-1 (Rattus norvegicus) (UniProt P10686); test: Inhibition of PLC-gamma-1/gamma-2 phosphorylation in antigen-stimulated rat RBL-2H3 cells at 50 uM by Western blot analysis in presence of dinitrophenylated bovine serum albumin; type: cell-based
T1 sequence (whole entry): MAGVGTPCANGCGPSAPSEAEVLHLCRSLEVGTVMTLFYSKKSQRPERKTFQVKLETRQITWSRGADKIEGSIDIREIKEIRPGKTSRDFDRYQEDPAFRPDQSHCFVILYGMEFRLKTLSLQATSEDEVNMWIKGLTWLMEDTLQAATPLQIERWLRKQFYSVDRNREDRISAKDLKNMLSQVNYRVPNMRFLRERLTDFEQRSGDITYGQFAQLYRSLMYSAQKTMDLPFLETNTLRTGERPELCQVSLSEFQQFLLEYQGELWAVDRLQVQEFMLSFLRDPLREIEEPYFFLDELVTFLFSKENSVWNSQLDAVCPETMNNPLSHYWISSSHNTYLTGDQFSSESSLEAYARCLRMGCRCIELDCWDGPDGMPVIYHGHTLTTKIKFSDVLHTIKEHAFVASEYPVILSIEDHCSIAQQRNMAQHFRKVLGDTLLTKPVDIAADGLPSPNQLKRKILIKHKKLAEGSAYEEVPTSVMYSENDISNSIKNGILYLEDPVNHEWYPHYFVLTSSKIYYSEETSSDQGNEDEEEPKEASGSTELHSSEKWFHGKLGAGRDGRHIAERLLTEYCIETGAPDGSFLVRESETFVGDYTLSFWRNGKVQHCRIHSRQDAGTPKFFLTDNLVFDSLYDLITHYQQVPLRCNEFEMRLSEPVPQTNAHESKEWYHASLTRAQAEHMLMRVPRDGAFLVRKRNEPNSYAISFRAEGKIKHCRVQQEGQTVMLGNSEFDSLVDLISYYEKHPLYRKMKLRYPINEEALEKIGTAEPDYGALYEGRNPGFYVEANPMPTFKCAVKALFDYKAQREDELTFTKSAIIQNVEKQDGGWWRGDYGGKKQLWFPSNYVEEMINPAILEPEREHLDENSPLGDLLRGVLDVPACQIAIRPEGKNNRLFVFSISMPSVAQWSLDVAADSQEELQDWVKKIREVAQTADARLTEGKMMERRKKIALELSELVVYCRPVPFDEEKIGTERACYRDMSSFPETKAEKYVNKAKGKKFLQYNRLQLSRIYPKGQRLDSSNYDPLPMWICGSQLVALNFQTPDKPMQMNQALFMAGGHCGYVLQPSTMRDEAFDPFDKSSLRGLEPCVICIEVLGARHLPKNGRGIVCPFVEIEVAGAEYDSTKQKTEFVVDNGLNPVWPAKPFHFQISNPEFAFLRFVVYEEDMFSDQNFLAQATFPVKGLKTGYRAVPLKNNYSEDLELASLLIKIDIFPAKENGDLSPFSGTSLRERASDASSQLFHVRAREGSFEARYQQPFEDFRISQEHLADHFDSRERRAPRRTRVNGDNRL

[8] = biological target: Mitogen-activated protein kinase 8 (Rattus norvegicus) (UniProt P49185); test: Inhibition of JNK1/2 phosphorylation in antigen-stimulated rat RBL-2H3 cells at 50 uM by Western blot analysis in presence of dinitrophenylated bovine serum albumin; type: cell-based
RBL-2H3 [9] = test: Suppression of degranulation in IgE-sensitized rat RBL-2H3 cells assessed as inhibition of antigen-stimulated histamine release after 30 mins in presence of dinitrophenylated bovine serum albumin; type: functional, cell-based
RBL-2H3 [10] = test: Suppression of degranulation in IgE-sensitized rat RBL-2H3 cells assessed as inhibition of A-23187-stimulated histamine release after 30 mins; type: functional, cell-based
RBL-2H3 [11] = test: Inhibition of degranulation in IgE-sensitized rat RBL-2H3 cells assessed as inhibition of antigen-stimulated intracellular calcium elevation after 30 mins in presence of dinitrophenylated bovine serum albumin; type: functional, cell-based

Sequence of Tyrosine-protein kinase SYK (Rattus norvegicus) (Q64725 whole entry, looked up): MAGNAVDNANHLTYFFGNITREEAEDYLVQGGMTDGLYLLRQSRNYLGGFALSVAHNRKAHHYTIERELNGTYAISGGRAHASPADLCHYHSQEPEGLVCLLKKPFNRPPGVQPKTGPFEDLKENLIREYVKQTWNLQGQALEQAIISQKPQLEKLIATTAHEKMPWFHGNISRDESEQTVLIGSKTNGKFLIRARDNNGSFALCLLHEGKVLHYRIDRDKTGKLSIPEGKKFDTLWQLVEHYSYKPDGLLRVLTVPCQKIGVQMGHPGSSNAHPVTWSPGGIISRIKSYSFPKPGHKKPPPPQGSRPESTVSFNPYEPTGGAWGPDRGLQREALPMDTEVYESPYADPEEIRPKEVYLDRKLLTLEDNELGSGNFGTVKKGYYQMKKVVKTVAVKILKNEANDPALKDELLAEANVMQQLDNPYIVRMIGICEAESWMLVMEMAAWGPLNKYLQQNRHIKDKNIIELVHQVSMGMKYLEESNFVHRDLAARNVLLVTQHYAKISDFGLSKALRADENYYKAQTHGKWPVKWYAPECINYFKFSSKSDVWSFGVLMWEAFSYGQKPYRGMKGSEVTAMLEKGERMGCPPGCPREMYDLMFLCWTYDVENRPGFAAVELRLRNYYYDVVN
Sequence of Mitogen-activated protein kinase 1 and 3 (ERK2 and ERK1) (Rattus norvegicus) (P21708 whole entry, looked up): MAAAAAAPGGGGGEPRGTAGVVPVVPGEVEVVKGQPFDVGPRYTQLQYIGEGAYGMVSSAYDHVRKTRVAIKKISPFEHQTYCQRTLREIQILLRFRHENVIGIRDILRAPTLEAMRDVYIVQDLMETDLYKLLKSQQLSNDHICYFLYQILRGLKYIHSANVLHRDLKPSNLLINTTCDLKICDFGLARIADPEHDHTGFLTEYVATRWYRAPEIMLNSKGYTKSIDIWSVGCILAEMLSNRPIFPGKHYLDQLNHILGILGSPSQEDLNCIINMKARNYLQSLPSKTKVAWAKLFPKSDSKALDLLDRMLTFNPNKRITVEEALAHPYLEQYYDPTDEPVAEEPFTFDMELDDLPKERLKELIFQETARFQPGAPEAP
Sequence of Mitogen-activated protein kinase 1 and 3 (ERK2 and ERK1) (Rattus norvegicus) (P63086 whole entry, looked up): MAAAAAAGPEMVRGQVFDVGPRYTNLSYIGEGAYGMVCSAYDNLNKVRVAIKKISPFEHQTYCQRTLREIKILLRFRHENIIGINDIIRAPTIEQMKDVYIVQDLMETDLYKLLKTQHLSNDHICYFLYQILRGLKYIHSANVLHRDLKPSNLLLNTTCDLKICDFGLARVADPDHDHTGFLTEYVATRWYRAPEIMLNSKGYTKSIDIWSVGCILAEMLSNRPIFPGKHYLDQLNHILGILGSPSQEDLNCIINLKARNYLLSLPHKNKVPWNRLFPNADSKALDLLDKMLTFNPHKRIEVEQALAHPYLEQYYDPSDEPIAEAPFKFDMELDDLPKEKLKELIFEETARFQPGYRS
Sequence of Mitogen-activated protein kinase 8 (Rattus norvegicus) (P49185 whole entry): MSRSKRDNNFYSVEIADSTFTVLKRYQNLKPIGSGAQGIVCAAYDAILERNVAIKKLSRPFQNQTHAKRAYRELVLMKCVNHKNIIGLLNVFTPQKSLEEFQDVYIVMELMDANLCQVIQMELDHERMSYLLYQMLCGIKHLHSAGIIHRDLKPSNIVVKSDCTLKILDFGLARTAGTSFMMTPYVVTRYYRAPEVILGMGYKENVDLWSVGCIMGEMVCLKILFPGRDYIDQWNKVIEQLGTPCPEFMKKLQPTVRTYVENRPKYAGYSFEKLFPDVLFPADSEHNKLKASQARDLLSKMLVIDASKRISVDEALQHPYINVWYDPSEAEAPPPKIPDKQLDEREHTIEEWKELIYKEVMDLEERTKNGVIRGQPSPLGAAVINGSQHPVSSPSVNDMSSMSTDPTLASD
Sequence of Tyrosine-protein kinase Lyn (Rattus norvegicus) (Q07014 whole entry): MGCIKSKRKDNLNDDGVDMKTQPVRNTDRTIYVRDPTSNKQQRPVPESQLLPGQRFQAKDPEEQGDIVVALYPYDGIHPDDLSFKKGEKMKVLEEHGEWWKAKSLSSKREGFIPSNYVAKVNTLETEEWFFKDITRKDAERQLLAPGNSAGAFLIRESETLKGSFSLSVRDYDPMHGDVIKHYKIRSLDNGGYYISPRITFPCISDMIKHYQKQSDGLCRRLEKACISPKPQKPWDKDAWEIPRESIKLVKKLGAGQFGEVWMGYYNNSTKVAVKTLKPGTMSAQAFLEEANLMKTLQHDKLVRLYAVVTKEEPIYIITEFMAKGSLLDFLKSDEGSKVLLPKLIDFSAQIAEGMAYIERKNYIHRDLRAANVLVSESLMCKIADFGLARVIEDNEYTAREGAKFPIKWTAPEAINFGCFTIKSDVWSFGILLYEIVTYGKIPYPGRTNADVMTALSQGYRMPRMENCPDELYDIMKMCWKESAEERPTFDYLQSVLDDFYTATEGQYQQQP

| Compound | Activity [1] | Activity [2] | Activity (RBL-2H3 [3]) | Activity [4] | Activity (RBL-2H3 [5]) | ED50 [6] | Activity [7] | Activity [8] | Activity (RBL-2H3 [9]) | Activity (RBL-2H3 [10]) | Activity (RBL-2H3 [11]) |
| --- | --- | --- | --- | --- | --- | --- | --- | --- | --- | --- | --- |
| COc1ccc(-c2cc(=O)c3c(O)c(OC)c(OC)cc3o2)cc1OC | Active | Active | Active | inactive | inactive | < 100 µM | Active | inactive | Dose-dependent effect | Active | Active |
| COc1ccc(OC)c(-c2cc(=O)c3c(OC)c(OC)cc(OC)c3o2)c1 | Active | Active | Active | inactive | inactive | < 100 µM | Active | inactive | Dose-dependent effect | Active | Active |
| O=C1O[C@H]([C@@H](O)CO)C(O)=C1O | – | – | – | – | – | 18 µM | – | – | – | – | – |
| O=C(O[C@@H]1Cc2c(O)cc(O)cc2O[C@@H]1c1cc(O)c(O)c(O)c1)c1cc(O)c(O)c(O)c1 | – | – | – | – | – | 7 µM | – | – | – | – | – |
| COc1cc(-c2cc(=O)c3c(OC)c(OC)c(OC)cc3o2)cc(OC)c1OC | Active | Active | Active | inactive | inactive | < 100 µM | Active | inactive | Dose-dependent effect | Active | inactive |
| VITAMIN E | – | – | – | – | – | 78 µM | – | – | – | – | – |
